Source: patent US20250313572A1, “MACROCYCLIC MCL-1 INHIBITORS AND METHODS OF USE” (AbbVie Inc., priority 2017, published 2025)
Where two headings read alike, the source gives them in different places.

How the values were obtained:
[1] = test system: AMO-1 human multiple myeloma tumor cell line; test: AMO-1 cell viability assay (CellTiter-Glo, 24 hours); format: cell-based
[2] = target: GST-MCL-1 (Homo sapiens, UniProt Q07820); test: TR-FRET MCL-1 binding assay (competition with probe F-Bak)
Summary of the method: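 Test compounds, 11 three-fold dilutions from 25 μM final, incubated 2 hours at room temperature with GST-MCL-1, F-Bak probe and Tb-anti-GST antibody. TR-FRET read at 340/35 nm excitation with 520/525 and 495/510 nm emission. Run without human serum and with 10% HS.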

[3] = test system: NCI-H929 human multiple myeloma tumor cell line; test: NCI-H929 cell viability assay (CellTiter-Glo, 24 hours); format: cell-based
[4] = read-out: AMO-1 Viability IC50 (μM, 10% FBS), 10% FBS, 24 hours of compound treatment
[5] = MCL-1 Binding Ki (nM, 10% HS), in the presence of 10% HS (human serum)
[6] = without HS, read-out: MCL-1 Binding Ki
[7] = read-out: H929 Viability IC50 (μM, 10% FBS), 10% FBS, 24 hours of compound treatment
[8] = Homo sapiens, AMO1, 24 h, read-out: AMO-1 Viability IC50 (μM, 10% FBS), 10% FBS, 24 hours of compound treatment
[9] = Homo sapiens, NCI-H929, 24 h, read-out: H929 Viability IC50 (μM, 10% FBS), 10% FBS, 24 hours of compound treatment

GST-MCL-1, sequence (Q07820 whole entry): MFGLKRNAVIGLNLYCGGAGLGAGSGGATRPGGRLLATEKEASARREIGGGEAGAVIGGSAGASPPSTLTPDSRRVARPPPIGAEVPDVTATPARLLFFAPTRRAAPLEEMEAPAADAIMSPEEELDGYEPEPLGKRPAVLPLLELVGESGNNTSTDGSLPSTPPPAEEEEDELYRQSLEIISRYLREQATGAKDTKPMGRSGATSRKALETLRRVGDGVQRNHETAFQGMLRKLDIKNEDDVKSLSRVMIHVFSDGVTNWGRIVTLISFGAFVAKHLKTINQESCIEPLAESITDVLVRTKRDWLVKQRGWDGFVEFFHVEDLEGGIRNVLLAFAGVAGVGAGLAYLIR

SMILES	IC50 [1, 4] [µM]	Ki [2, 5] [nM]	Ki [2, 6] [nM]	IC50 [3, 7] [µM]	IC50 [1, 8] [µM]	IC50 [3, 9] [µM]
COCCOCCOCCC1CCN(C[C@@H]2COc3ccc(OCc4ccnc(-c5ccccc5OC)n4)c(c3)C[C@H](C(=O)O)Oc3ncnc4sc(-c5ccc(F)cc5)c(c34)-c3ccc(c(Cl)c3C)O2)CC1 (atropisomer, axis not shown) [Example 21, (7R,16R,21S)-19-chloro-1-(4-fluorophenyl)-16-[(4-{2-[2-(2-methoxyethoxy)ethoxy]ethyl}piperidin-1-yl)methyl]-10-{[2-(2-methoxyphenyl)pyrimidin-4-yl]methoxy}-20-methyl-7,8,15,16-tetrahydro-18,21-etheno-13,9-(metheno)-6,14,17-trioxa-2-thia-3,5-diazacyclononadeca[1,2,3-cd]indene-7-carboxylic Acid]	0.0143	0.556	0.059	0.0102	–	–
COCCOCCOc1cc(COc2ccc3cc2C[C@H](C(=O)O)Oc2ncnc4sc(-c5ccc(F)cc5)c(c24)-c2c(C)c(Cl)c(c(Cl)c2C)O[C@H](CN2CCN(C)CC2)CO3)nc(-c2ccccc2OC)n1 [Example 169, (7R,16R)-19,23-dichloro-1-(4-fluorophenyl)-10-({6-[2-(2-methoxyethoxy)ethoxy]-2-(2-methoxyphenyl)pyrimidin-4-yl}methoxy)-20,22-dimethyl-16-[(4-methylpiperazin-1-yl)methyl]-7,8,15,16-tetrahydro-18,21-etheno-13,9-(metheno)-6,14,17-trioxa-2-thia-3,5-diazacyclononadeca[1,2,3-cd]indene-7-carboxylic Acid]	–	0.631	0.03	–	0.000306	0.00115
COCCOCCOCCOCCOCC1(F)CC=C(c2nccc(COc3ccc4cc3C[C@H](C(=O)O)Oc3ncnc5sc(-c6ccc(F)cc6)c(c35)-c3c(C)c(Cl)c(c(Cl)c3C)O[C@H](CN3CCN(C)CC3)CO4)n2)CC1 (single isomer, unassigned) [Example 114, (7R,16R)-19,23-dichloro-10-({2-[(4S*)-4-fluoro-4-(2,5,8,11,14-pentaoxapentadecan-1-yl)cyclohex-1-en-1-yl]pyrimidin-4-yl}methoxy)-1-(4-fluorophenyl)-20,22-dimethyl-16-[(4-methylpiperazin-1-yl)methyl]-7,8,15,16-tetrahydro-18,21-etheno-13,9-(metheno)-6,14,17-trioxa-2-thia-3,5-diazacyclononadeca[1,2,3-cd]indene-7-carboxylic Acid]	0.000197	0.15	0.018	0.000331	–	–
COC[C@@H](COc1ccc(-c2nccc(COc3ccc4cc3C[C@H](C(=O)O)Oc3ncnc5sc(-c6ccc(F)cc6)c(c35)-c3c(C)c(Cl)c(c(Cl)c3C)O[C@H](CN3CCN(C)CC3)CO4)n2)cc1)OC [Example 136, (7R,16R)-19,23-dichloro-10-[(2-{4-[(25)-2,3-dimethoxypropoxy]phenyl}pyrimidin-4-yl)methoxy]-1-(4-fluorophenyl)-20,22-dimethyl-16-[(4-methylpiperazin-1-yl)methyl]-7,8,15,16-tetrahydro-18,21-etheno-9,13-(metheno)-6,14,17-trioxa-2-thia-3,5-diazacyclononadeca[1,2,3-cd]indene-7-carboxylic acid]	–	0.758	0.027	–	0.000403	0.000392
COCCOCCO[C@]1(c2nccc(COc3ccc4cc3C[C@H](C(=O)O)Oc3ncnc5sc(-c6ccc(F)cc6)c(c35)-c3c(C)c(Cl)c(c(Cl)c3C)O[C@H](CN3CCN(C)CC3)CO4)n2)CC[C@H](OCC2COCCO2)CC1 (stereo partly drawn) [Example 122, (7R,16R)-19,23-dichloro-10-[(2-{(1s,4s)-4-[(1,4-dioxan-2-yl)methoxy]-1-[2-(2-methoxyethoxy)ethoxy]cyclohexyl}pyrimidin-4-yl)methoxy]-1-(4-fluorophenyl)-20,22-dimethyl-16-[(4-methylpiperazin-1-yl)methyl]-7,8,15,16-tetrahydro-18,21-etheno-9,13-(metheno)-6,14,17-trioxa-2-thia-3,5-diazacyclononadeca[1,2,3-cd]indene-7-carboxylic Acid]	–	0.698	0.024	–	0.00107	0.00277
Cc1c2ccc(c1Cl)O[C@H](CN1CCN(C)CC1)COc1ccc(OCc3ccnc(N4CCC5(CC4)CC(F)(F)CO5)n3)c(c1)C[C@H](C(=O)O)Oc1ncnc3sc(-c4ccc(F)cc4)c-2c13 [Example 78, (7R,16R)-19-chloro-10-{[2-(3,3-difluoro-1-oxa-8-azaspiro[4.5]decan-8-yl)pyrimidin-4-yl]methoxy}-1-(4-fluorophenyl)-20-methyl-16-[(4-methylpiperazin-1-yl)methyl]-7,8,15,16-tetrahydro-18,21-etheno-13,9-(metheno)-6,14,17-trioxa-2-thia-3,5-diazacyclononadeca[1,2,3-cd]indene-7-carboxylic Acid]	–	16	2.28	–	0.000935	0.00552
COCCOCCOCCOc1cncc(COc2ccc3cc2C[C@H](C(=O)O)Oc2ncnc4sc(-c5ccc(F)cc5)c(c24)-c2c(C)c(Cl)c(c(Cl)c2C)O[C@H](CN2CCN(C)CC2)CO3)n1 [Example 176, (7R,16R)-19,23-dichloro-1-(4-fluorophenyl)-10-[(6-{2-[2-(2-methoxyethoxy)ethoxy]ethoxy}pyrazin-2-yl)methoxy]-20,22-dimethyl-16-[(4-methylpiperazin-1-yl)methyl]-7,8,15,16-tetrahydro-18,21-etheno-13,9-(metheno)-6,14,17-trioxa-2-thia-3,5-diazacyclononadeca[1,2,3-cd]indene-7-carboxylic Acid]	–	0.868	0.151	–	0.00386	0.0073
Cc1c2ccc(c1Cl)O[C@H](CN1CCN(C)CC1)COc1ccc(OCc3ccnc(-c4ccc(CCC(=O)O)cc4)n3)c(c1)C[C@H](C(=O)O)Oc1ncnc3sc(-c4ccc(F)cc4)c-2c13 (atropisomer, axis not shown) [Example 17, (7R,16R,21S)-10-({2-[4-(2-carboxyethyl)phenyl]pyrimidin-4-yl}methoxy)-19-chloro-1-(4-fluorophenyl)-20-methyl-16-[(4-methylpiperazin-1-yl)methyl]-7,8,15,16-tetrahydro-18,21-etheno-13,9-(metheno)-6,14,17-trioxa-2-thia-3,5-diazacyclononadeca[1,2,3-cd]indene-7-carboxylic Acid]	–	0.246	0.015	–	0.0155	0.0298
Cc1c(Cl)c2c(Cl)c(C)c1-c1c(-c3ccc(F)cc3)sc3ncnc(c13)O[C@@H](C(=O)O)Cc1cc(ccc1OCc1ccnc(N3CCOCCOCCOCCOCC3)n1)OC[C@@H](CN1CCN(C)CC1)O2 [Example 115, (7R,16R)-19,23-dichloro-1-(4-fluorophenyl)-20,22-dimethyl-16-[(4-methylpiperazin-1-yl)methyl]-10-{[2-(1,4,7,10-tetraoxa-13-azacyclopentadecan-13-yl)pyrimidin-4-yl]methoxy}-7,8,15,16-tetrahydro-18,21-etheno-13,9-(metheno)-6,14,17-trioxa-2-thia-3,5-diazacyclononadeca[1,2,3-cd]indene-7-carboxylic Acid]	–	0.862	0.093	–	0.000593	0.00113
Cc1c(Cl)c2c(Cl)c(C)c1-c1c(-c3ccc(F)cc3)sc3ncnc(c13)O[C@@H](C(=O)O)Cc1cc(ccc1OCc1ccnc(-c3ccc(OCCN4CCP(C)(=O)CC4)cc3)n1)OC[C@@H](CN1CCN(C)CC1)O2 [Example 71, (7R,16R)-19,23-dichloro-1-(4-fluorophenyl)-20,22-dimethyl-10-[(2-{4-[2-(4-methyl-4-oxo-1, 4λ^5-azaphosphinan-1-yl)ethoxy]phenyl}pyrimidin-4-yl)methoxy]-16-[(4-methylpiperazin-1-yl)methyl]-7,8,15,16-tetrahydro-18,21-etheno-13,9-(metheno)-6,14,17-trioxa-2-thia-3,5-diazacyclononadeca[1,2,3-cd]indene-7-carboxylic Acid]	–	0.106	0.039	–	0.00468	0.00851
COCCOCCOCCOCCOCCOCC1(C)CC=C(c2nccc(COc3ccc4cc3C[C@H](C(=O)O)Oc3ncnc5sc(-c6ccc(F)cc6)c(c35)-c3c(C)c(Cl)c(c(Cl)c3C)O[C@H](CN3CCN(C)CC3)CO4)n2)CC1 (single isomer, unassigned) [Example 85, (7R,16R)-19,23-dichloro-1-(4-fluorophenyl)-10-({2-[(4S*)-4-(2,5,8,11,14,17-hexaoxaoctadecan-1-yl)-4-methylcyclohex-1-en-1-yl]pyrimidin-4-yl}methoxy)-20,22-dimethyl-16-[(4-methylpiperazin-1-yl)methyl]-7,8,15,16-tetrahydro-18,21-etheno-13,9-(metheno)-6,14,17-trioxa-2-thia-3,5-diazacyclononadeca[1,2,3-cd]indene-7-carboxylic Acid]	0.000198	0.191	0.029	0.000485	–	–
